Measured values published in patent publication US20140086839A1, “QUINOLONE ANALOGS FOR TREATING AUTOIMMUNE DISEASES” (Tel HaShomer Medical Research Infrastructure and Services …, priority 2011, published 2014).

Key:
[1] = XTT cell viability of PHA-stimulated human PBMCs from healthy subjects; type: cell-based; conditions: PHA 20 μg/ml, read-out: maximal effect on viability of human PBMCs (decrease)
Procedure: FIG. 6 is a histogram depicting the effect of CX-5461 on viability of human PBMCs. Human PBMCs were plated in DMEM+10% FCS+P/S+Q and 20 μg/ml PHA (400,000 cell/well) in the presence of increased concentrations of CX-5461 (50-500 nM) for 72 hours. Cells cultured with PHA alone served as controls. After incubation cell viability was determined by XTT assay;
PBMCs ([…]) from normal, healthy, subjects were plated in the presence of PHA (20 μg/ml) with elevated concentrations of CX-5461 (50-500 nM) for 72 hours. Cells plated in absence of CX-5461 served as controls.

[2] = system: MOG-induced EAE; assay: MOG-induced EAE, CX-5461 prophylactic treatment initiated at induction phase; type: in vivo; conditions: for Cumulative disease score / Disease onset / Maximal clinical score: 9 days
Procedure: (§1) EAE was induced in female C57BL/6 mice, 8 weeks of age, by subcutaneous immunization to the flank of emulsion (1:1 ratio volume/volume) containing […] peptide dissolved in phosphate-buffered saline (PBS) (at a concentration 2 mg/ml) and 0.5 mg Mycobacterium Tuberculosis H37Ra (Difco, Detroit, Mich.) in […] incomplete Freund's adjuvant (Sigma, St. Louis, Mo.). Pertussis toxin 200 ng/mouse (dissolved in […] PBS (List Biological Laboratories, Campbell, Calif.) was injected intra-peritoneal on the day of immunization and again two days later. Mice were monitored daily for clinical signs of EAE, scored as follows: 1-flaccid tail; 1.5—hind limb weakness; 2—paralyzed hind limbs and poor righting ability; 2.5—forelimb weakness, paralyzed hind limbs, paralyzed tail; 3—four limbs paralysis, inability to right; 4—quadriplegia; 5.0—moribund or death of the animal after preceding clinical disease. Animal reaching a score of 4 were scarified using CO2. Mice were kept in an SPF (Specific Pathogen Free) environment. Animal breeding and maintenance and all experimental protocols were performed in accordance with the Israeli Council for Animal Care guidelines and all experiments were approved by Sheba IRB Animal Care Ethical Committee.
EAE was induced in female C57Bl/6J female mice (8 weeks old) as described above. Treatment with CX-5461 was initiated on the day of induction and continued till the clinical signs of EAE appeared in the control animal group (In 2 out of the 7 mice clinical signs of EAE appeared). CX-5461 was administered orally to each animal; the following doses of CX-5461 in 0.2 ml of vehicle were used: 12.5 mg/kg (n=6 mice), 25 mg/kg (n=6 mice) and 50 mg/kg (n=7 mice) in 0.2 ml of vehicle. Vehicle treated mice served as controls (n=7 mice). Treatment continued for 9 days post induction, until the first sign of EAE (grade 1) appeared in the vehicle animal group (in 2 out of 7 mice). Mice were monitored daily for clinical signs of EAE up to 42 days post induction.

[3] = XTT cell viability assay of neuronal progenitor cells; type: cell-based, mice; conditions: read-out: decrease in NPC cell viability
Procedure: (§2) FIG. 8 is a histogram depicting the effects of CX-5461 on viability of neuronal progenitor cells (NPCs). Mouse NPCs were plated in neurospheres medium containing basic FGF and EGF at 20 ng/ml each (26,000 cell/well) in the presence of increased concentrations of CX-5461 (20-500 nM) for 72 hours. Cells cultured without CX-5461 served as controls. Following incubation cell viability was determined by XTT assay;
(§3) NPCs derived from the subventricular zone of the lateral ventricle of adult mice were allowed to proliferate in the presence of increased concentrations of CX-5461 (20 nM to 500 nM) for 72 hours, and cell viability was tested using XTT assay.

[4] = system: neural progenitor cells (NPCs); assay: as above; type: cell-based, mice; conditions: 20 nM, 72 hours
Procedure: as §2, §3

[5] = system: MOG-induced EAE; assay: MOG-induced EAE, CX-5461 treatment initiated at clinical onset; type: in vivo
Procedure: as §1
EAE was induced in mice as described in Example 6, hereinabove.
EAE was induced in female C57/6J female mice as described above. Treatment with CX-5461 was administered orally in 0.2 ml of vehicle with the following concentrations: 12.5 mg/kg/d (n=11 mice) and 25.0 mg/kg/d (n=8 mice). Vehicle treated mice served as controls (n=9 mice). CX-5461 treatment was initiated from the day of disease onset (score 0.5 or 1.0) for the following 14 days. The day of disease onset was evaluated for each animal daily.

[6] = XTT cell viability assay of PHA-stimulated mouse splenocytes; type: cell-based
Procedure: FIG. 5 is a histogram depicting the effect of CX-5461 on viability of mouse splenocytes. Mouse splenocytes were plated in DMEM+10% FCS+P/S+Q and 10 μg/ml PHA (250,000 cell/well) in the presence of increased concentrations of CX-5461 (50-4000 nM) for 72 hours. Cells cultured with PHA alone served as controls. Following incubation cell viability was determined by XTT assay;
Cells viability was assessed by the 2,3 bis[2-Methoxy-4-nitro-5-sulfophenyl]-2H-tetrazolium-5-carboxanilide (XTT) as say (Biological Industries, Kibbutz Beit Hemeek, Israel) which measures the reduction of a tetrazolium component (XTT) into soluble formazan product by the mitochondria of viable cells. The intensity of the dye obtained is proportional to the number of metabolic active cells. Mouse splenocytes were plated in presence of PHA ([…]) and elevated concentrations of CX-5461 (50-4000 nM) for 72 hours. Cells plated in absence of CX-5461 served as controls. Following incubation, cell viability was measured by 2,3-bis-(2-methoxy-4-nitro-5-sulfophenyl)-2H-tetrazolium-5-carboxanilide (XTT) assay according to manufacturer's instructions (Biological Industries, Kibbutz Beit Hemeek, Israel). The intensity of the dye obtained is proportional to the number of metabolic active cells.

[7] = 12.5 mg/kg/day oral from day of EAE induction
[8] = 25.0 mg/kg/day oral from day of EAE induction
[9] = 12.5 mg/kg/day oral from disease onset, 14 days
[10] = 25 mg/kg/day oral from disease onset

## Cc1cnc(CNC(=O)c2c(=O)c3ccc(N4CCCN(C)CC4)nc3n3c2sc2ccccc23)cn1 [CX-5461, 2-(4-methyl-1,4-diazepan-1-yl)-N-((5-methylpyrazin-2-yl)methyl)-5-oxo-5H-benzo[4,5]thiazolo[3,2-a][1,8]naphthyridine-6-carboxamide]
[1]
  cytotoxicity at 72 h, 50 nM: 35%
[2]; [7]
  Cumulative disease score: 16.25 ± 3.94
  Disease onset: 20.83 ± 1.36 days p.i.
  Maximal clinical score: 2.83 ± 0.49
[2]; [8]
  Cumulative disease score: 14.1 ± 3.5
  Disease onset: 23.1 ± 1.2 days p.i.
  Maximal clinical score: 3.3 ± 1.0
[2]; 50 mg/kg/day oral, days of treatment post-induction, mean
  time to death (toxicity): 7.6 ± 0.5 days
[2]; 50 mg/kg/day oral, since day 5 of treatment
  toxic signs: change in the color and brightness of their fur, loss of weight and change in behavior
[2]; all CX-5461 treated groups, not dependent on concentration
  delay of EAE onset versus vehicle-control group: 10 days
[3]; mouse, 50 nM
  cytotoxicity at 72 h, 50 nM: 30%
[3]; mouse, 100, 250 and 500 nM
  cytotoxicity at 72 h: ~50%
[4]
  effect on NPCs viability: no effect
[5]; [9]
  Cumulative disease score: 18.59 ± 4.26
  Maximal EAE score: 2 ± 0.47
  survival: all the animals survived
[5]; [10]
  EAE score: 0.88±0.18
  toxic effects: change in their fur color and brightness and loss of weight
[5]; 25 mg/kg/day oral from disease onset, all mice died
  time to death (toxic effects): 10.1 ± 0.5 days
[6]; 50 nM, read-out: decrease in cell viability of splenocyte cells
  cytotoxicity at 72 h, 50 nM: 27%
[6]; 500 nM and higher concentrations, read-out: decrease in cell viability of splenocyte cells (maximal)
  cytotoxicity at 72 h: 97 to 100%
